Read-outs that look alike come from different tables or passages of the source. Ends that are not written are not given here. Peptide text beside a SMILES is read from it.
Legend:
HLA-A2 = format: binding, human
[1] = test system: antibodies of sera of patients bonding to the RIb peptide; format: binding, human
[2] = target: MAb 11 × 2 (IgG3) anti-D peptide
[3] = target: MAb 11 × 7 (IgG3) anti-D peptide
trypsin = conditions: pH 7.4
in vitro = conditions: pH 7.4
[4] = test system: peptide-primed T lymphocytes from BALB/c mice; format: cell-based, mouse
I-A^d class II molecules = I-A^d class II molecules (Mus musculus, UniProt P01921+P04228); format: cell-based
I-E^d class II molecules = I-E^d class II molecules (Mus musculus, UniProt P01904+P01915); format: cell-based
[5] = test system: TCR of peptide-primed lymph node T-cells; format: cell-based, mouse
[6] = test system: peptide-primed T lymphocytes from BALB/c mice; format: cell-based, mouse; remark: listed apart in the source
[7] = test system: I-E^d-restricted T-cell hybridomas 45G10, 44B1 and 41C1; format: cell-based, mouse
BALB/c mice = conditions: mouse, in vivo
[8] = test system: IgG antibodies of sera of patients suffering from DLE and SS; format: binding, human
[9] = test system: IgG antibodies of sera of patients suffering from DLE and SS; format: binding, human; remark: listed apart in the source
Protocol: FIG. 6: ELISA reactivity of serum samples originating from patients suffering from DLE and SS with the parent peptide and the analogue RIb 277–291 of Ro52. The sera of the patients are diluted to 1:1,000. Only the antibody activity of the sub-class IgG is measured. The median values of the optical density are indicated. The broken line represents the upper limit of the normal population corresponding to the mean value of the optical density of 20 normal human sera+2 SD (standard deviation) (0.30 OD units).
Sera of female F1 lupous mice (NZB/W) were obtained from S. Batsford (Freibourg, Germany). The human sera originate from patients suffering from disseminated lupus erythematosus (DLE) and Sjögren's syndrome (SS). They were obtained from D. A. Isenberg (London), O. Meyer (Paris) and G. Fournié (Toulouse). The sera of healthy volunteers were obtained from J. L. Pasquali (Strasbourg).
The sera of lupous mice were tested by ELISA as described previously (Benkirane, N., Friede, M., Guichard, G., briand, J. P., Van Regenmortel, M. H. V. and Muller, S. (1993) Antigenicity and immunogenicity of modified synthetic peptides containing D-amino acid residues. J. Biol. Chem., 268: 26279–26285). Only the antibodies of isotype IgG were tested. […] Clin. Exp. Immunol., 95: 397–407) except in the case of the peptide Ro52 277–291, where sensitization of the ELISA plates was carried out at 4° C. instead of 37° C. (see the reasons above). The threshold value for positivity of each test, including that of tests based on the use of retro-inverso peptide analogues, was determined using 20 sera of healthy individuals. The antigenic activity of the peptides is also measured by ELISA using a liquid phase inhibition test.
The 30 sera (positive or negative with respect to the L peptide) were tested in parallel with the RIa and RIb analogues. It was shown that all the sera positive with the L peptide were also positive with the retro-inverso peptides. […] The mean optical density corresponding to the arithmetic mean of all the optical density values, including the values below the threshold line of positivity, is 0.21 (standard deviation 0.25) and 0.51 (standard deviation 0.62) with the L and RIb peptides respectively.

[10] = test system: sera of patients suffering from various systemic rheumatic diseases; format: binding, human
[11] = test system: anti-virus serum raised in rabbit and serum against the 91–108 sequence expressed at the surface of Salmonella flagellin; format: binding; conditions: FIGS. 14 and 15

I-A^d class II molecules, sequence (P04228 24-256 limits assumed): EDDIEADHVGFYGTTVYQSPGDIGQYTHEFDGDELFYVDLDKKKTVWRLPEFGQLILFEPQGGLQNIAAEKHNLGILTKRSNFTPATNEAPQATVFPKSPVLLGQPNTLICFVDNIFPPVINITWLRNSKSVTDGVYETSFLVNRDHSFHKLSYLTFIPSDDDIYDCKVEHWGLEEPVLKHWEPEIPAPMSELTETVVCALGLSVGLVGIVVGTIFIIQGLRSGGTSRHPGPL
I-A^d class II molecules, sequence (P01921 28-265 limits assumed): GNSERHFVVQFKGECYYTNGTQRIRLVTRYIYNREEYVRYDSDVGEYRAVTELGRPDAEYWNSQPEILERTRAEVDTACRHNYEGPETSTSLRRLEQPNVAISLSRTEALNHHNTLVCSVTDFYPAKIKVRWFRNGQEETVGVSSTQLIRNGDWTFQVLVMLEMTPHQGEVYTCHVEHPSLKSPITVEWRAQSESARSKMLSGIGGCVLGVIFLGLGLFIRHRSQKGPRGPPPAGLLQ
I-E^d class II molecules, sequence (P01904 26-255 limits assumed): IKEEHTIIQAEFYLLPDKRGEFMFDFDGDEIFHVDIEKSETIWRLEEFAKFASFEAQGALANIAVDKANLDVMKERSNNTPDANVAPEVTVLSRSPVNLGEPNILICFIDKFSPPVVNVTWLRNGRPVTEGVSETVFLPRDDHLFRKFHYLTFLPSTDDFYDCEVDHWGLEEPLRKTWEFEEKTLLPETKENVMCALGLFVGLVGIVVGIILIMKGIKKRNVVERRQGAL
I-E^d class II molecules, sequence (P01915 27-264 limits assumed): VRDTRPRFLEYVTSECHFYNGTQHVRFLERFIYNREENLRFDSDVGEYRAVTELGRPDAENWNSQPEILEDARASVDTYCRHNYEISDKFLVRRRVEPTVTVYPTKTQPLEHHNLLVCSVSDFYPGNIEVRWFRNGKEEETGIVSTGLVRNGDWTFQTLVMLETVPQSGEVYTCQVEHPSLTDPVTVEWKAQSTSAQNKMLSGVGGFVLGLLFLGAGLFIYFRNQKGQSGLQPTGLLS

[gLeu^60–mGly^61] M58–66 [GG5]
fixing to the molecule HLA-A2 (fluorescence), in words (HLA-A2): do not bond to the HLA-A2 molecule

H → Gly → Leu → Lys → Lys→ Nle → Leu → Arg → Thr → Cys → Ala → Val → His → Ile → Thr → Leu → OH [L peptide 277–291]
inhibition of bonding of the antibodies to the RIb peptide [1]: up to 75.8%

GLLGFVFTL [Leu 59]
fixing to the molecule HLA-A2 (fluorescence), in words (HLA-A2): very active

CC[C@@H](C)[C@@H](NC(=O)CNC(=O)CNC(=O)[C@H](N)CS)C(=O)N[C@H](CCCNC(=N)N)C(=O)NCC(=O)N[C@H](CCC(=O)O)C(=O)N[C@H](CCCNC(=N)N)C(=O)N[C@H](C)C(=O)O [D peptide] (HELM PEPTIDE1{[dC].G.G.[dI].[dR].G.[dE].[dR].[dA]}$$$$V2.0)
BIAcore (Ka M^−1) affinity constant at equilibrium [2]: 1e+10 M⁻¹
Ka (affinity constant at equilibrium) [2]: 13,000 ×10^6 M^−1
BIAcore (Ka M^−1) affinity constant at equilibrium [3]: 1e+07 M⁻¹
Ka (affinity constant at equilibrium) [3]: 1.2e+07 M⁻¹
time to complete loss of immunological activity on digestion with immobilized trypsin (trypsin): > 240 min
half-life (in vitro): 1.22 h

GILGFVFAL [Ala 65]
fixing to the molecule HLA-A2 (fluorescence), in words (HLA-A2): very active

CH3CO-(D)Cys-(D)Ser-(D)Lys-(D)Gln-(D)Val-(D)Arg-(D)Leu-(D)Lys-(D)Ser-(D)Tyr-(D)Met-(D)Phe-(D)Tyr-NH2 [retro-inverso peptide 435–446 of γ2a^b]
IL-2 production of T-lymphocytes of mice immunized with parent peptide 435–446 of γ2a^b, stimulated by the peptide [4]: failed to induce detectable IL-2 secretion
maximal IL-2 secretion measured using CTL-L cells in the presence of Con A [4]: 26 445 cpm
inhibition, in words (I-A^d class II molecules): almost no inhibition
reduction of the IL-2 production (I-A^d class II molecules): about 35%
inhibition (of IL-2 production / binding of cI 12–26) (I-E^d class II molecules): ≤ 48%

CH3CO-Lys-Leu-Phe-AI a-Val-Trp-Lys-Ile-Thr-Tyr-Lys-Asp-Thr-NH2 [L-peptide 103–115 of poliovirus VP1]
IL-2 production of T-lymphocytes of mice immunized with retro-inverso analogue 103–115, in response to the peptide [4]: IL-2 production were also found
IL-2 production of lymph node cells of mice immunized with parent peptide 103–115, stimulated in vitro by the peptide [4]: produced significant levels of IL-2
maximal IL-2 secretion measured using CTL-L cells in the presence of Con A [4]: 10 990 cpm
IL-2 production by T-cells primed with the retro-inverso analogue 103–115 in response to the peptide [5]: significantly increased
proliferation of T-lymphocytes of mice immunized with retro-inverso analogue 103–115, in response to the peptide [6]: a good proliferative response
proliferation of lymph node cells of mice immunized with parent peptide 103–115, stimulated in vitro by the peptide [6]: proliferated
IL-2 production of T-cell hybridomas stimulated by the peptide [7]: produced high levels of IL-2
binding to I-A^d transfected fibroblasts, in words (I-A^d class II molecules): Neither the L- nor the retro-inverso peptides bound
cross-reaction in ELISA of antibodies raised against the peptide with the counterpart (L or retro-inverso) peptide (BALB/c mice): cross-reacted, although less efficiently
inhibition (of IL-2 production / binding of cI 12–26) (I-E^d class II molecules): up to 77%

Ac-YFMYSKLRVQKSC-NH2 [L-peptide 435–446 of γ2a^b]
IL-2 production of T-lymphocytes of mice immunized with parent peptide 435–446 of γ2a^b, stimulated by the peptide [4]: only observed after stimulation by the parent peptide
maximal IL-2 secretion measured using CTL-L cells in the presence of Con A [4]: 21 565 cpm
proliferation and IL-2 production of lymph node cells of mice immunized with retro-inverso analogue 435–446 of γ2a^b, stimulated by the peptide [6]: proliferation of lymph node cells and IL-2 production were observed
proliferation of T-lymphocytes of mice immunized with parent peptide 435–446 of γ2a^b, stimulated by the peptide [6]: induced a proliferative T-cell response
reduction of the IL-2 production level (I-A^d class II molecules): > 88%
cross-reaction in ELISA of antibodies raised against the peptide with the counterpart (L or retro-inverso) peptide (BALB/c mice): showed no cross-reaction
inhibition (of IL-2 production / binding of cI 12–26) (I-E^d class II molecules): Up to 84%

H2 N-D-Val ← D-Cys ← D-Glu ← D-Lys ← D-Leu ← D-Cys ← D-Asn ← D-Glu ← D-Lys ← D-Leu ← D-Leu ← D-Lys ← D-Lys ← D-Ala ← D-Arg ← D-Ile ← D-His ← D-Pro ← D-Phe ← D-His ← D-Ile-COCH3 [Blocked RI peptide 304–324 of Ro60]
mean optical density [8]: 1.15
number of sera which reacted [8]: 15/20
percentage of sera which reacted [8]: 75%

H2N-Gly ← D-Leu ← D-Lys ← D-Lys ← D-Nle ← D-Leu ← D-Arg ← D-Thr ← D-Cys ← D-Ala ← D-Val ← D-His ← D-Ile ← D-Thr ← (R,S)-mLeu-OH [RIb peptide]
sera of patients tested in which anti-peptide 277–291 antibodies are detected ([9]; 30 sera of DLE and SS patients): 50%
mean optical density ([9]; arithmetic mean of all 30 sera, peptide 277–291 of Ro52): 0.51
number of sera which reacted among the 25 sera negative with the L peptide ([9]; threshold 0.30 OD units): 10
inhibition of bonding of the antibodies to the RIb peptide [1]: up to 79.2%

H-Ser → Ala → Pro → Ala → Thr → Gly → Gly → Val → Lys → Lys → Pro → His → Arg → Tyr → Arg → Pro → Gly → Thr-OH [natural L peptide 28–45]
number of positive sera [10]: 12
number of positive sera DLE [10]: 8
percentage of positive sera [10]: 17.4%

H-CKAFSNSYPYDVPDYASL-OH [parent L-peptide C18L]
recognition by the tested antibodies (ELISA) [11]: substantially recognized in the same way

Ac-CKAFSNSYPYDVPDYASL-NH2 [double blocked L-peptide *C18L*]
recognition by the tested antibodies (ELISA) [11]: substantially recognized in the same way

CH3CO-Ser → Ala → Pro → Ala → Thr → Gly → Gly → Val → Lys → Lys → Pro → His → Arg → Tyr → Arg → Pro → Gly → Thr-NH2 [blocked L peptide 28–45]
number of positive sera [10]: 20
number of positive sera DLE [10]: 12
percentage of positive sera [10]: 29%
